{
  "source": "patent US20130190190A1",
  "about": "“MOLECULAR TARGETS FOR MODULATING INTRAOCCULAR PRESSURE AND DIFFERENTIATION OF STEROID RESPONSES VERSUS NON-RESPONDERS” (priority 2007, published 2013)",
  "assay": "Intraocular pressure (IOP) change in study eyes of patients after a single intravitreal triamcinolone acetonide (IVTA) injection",
  "format": "in vivo, human",
  "conditions": "56 eyes",
  "method": "Patients who were recruited were offered treatment with IVTA for various retinal diseases or who had received IVTA in the past. Each patient was treated with IVTA, 4 mg in 0.1 cc, for a variety of indications, at the discretion of the treating physician. Inclusion criteria included age greater than 18 years and the ability to give appropriate informed consent. Exclusion criteria included prior pars plana vitrectomy in the study eye, anterior-segment neovascularization in the study eye, the use of any medication intended to lower IOP in the study eye, or a history of glaucoma, suspected glaucoma, or ocular hypertension in the study eye. All IOP measurements were as per the treating physician's standard practice, typically either applanation tonometry or Tono-pen (Reichert, Depew, N.Y.). No standardized IOP measurement protocol was followed. Intraocular pressure (TOP) was recorded in the study eye prior to treatment with IVTA (baseline IOP). Follow-up was performed at the discretion of the treating physician. On each subsequent visit, IOP was recorded (follow-up IOP) for up to 1 year, or until the study eye was treated with any subsequent intraocular surgery, any subsequent intravitreal injection, or any medication intended to lower IOP. Therefore, during the time period relevant to this study, each eye received only one intravitreal injection. All treatment decisions were at the discretion of the treating physician. The highest follow-up IOP was recorded (maximum IOP). The primary outcome measure was the difference between maximum IOP and baseline IOP was calculated (A IOP), with a positive value indicating a rise in IOP.",
  "data": [
    {"smiles": "CC1(C)O[C@@H]2C[C@H]3[C@@H]4CCC5=CC(=O)C=C[C@]5(C)[C@@]4(F)[C@@H](O)C[C@]3(C)[C@]2(C(=O)CO)O1", "note": "[IVTA, triamcinolone acetonide]", "values": [
      {"measurement": "Mean Δ IOP (maximum IOP minus baseline IOP)", "setting": "IVTA 4 mg in 0.1 cc intravitreal, follow-up up to 1 year, positive value = rise in IOP", "value": 7, "unit": "mmHg"},
      {"measurement": "Eyes with Δ IOP greater than 10 mmHg", "setting": "IVTA 4 mg intravitreal, follow-up up to 1 year, 9 eyes", "value": 16, "unit": "%"},
      {"measurement": "Eyes with Δ IOP less than 5 mmHg", "setting": "IVTA 4 mg intravitreal, follow-up up to 1 year, 20 eyes", "value": 36, "unit": "%"},
      {"measurement": "Eyes with Δ IOP 5-10 mmHg", "setting": "IVTA 4 mg intravitreal, follow-up up to 1 year, 27 eyes", "value": 48, "unit": "%"},
      {"measurement": "Mean maximum follow-up IOP", "setting": "patients with retinal diseases, IVTA 4 mg in 0.1 cc, one intravitreal injection, highest IOP in follow-up up to 1 year, mean baseline IOP 15 mmHg", "value": 22, "unit": "mmHg"}
    ]}
  ]
}
